# According to article PMC12131194, “Rational design, synthesis, and evaluation of novel polypharmacological compounds targeting NaV1.5, KV1.5, and K2P channels for atrial fibrillation” (The Journal of Biological Chemistry, 2025):
# Key:
# human Kv1.5 = target: T1, human Kv1.5 (Homo sapiens, UniProt P22460); test: Whole-cell patch-clamp in transfected HEK-293 cells, KV1.5; assay type: cell-based; details: 10 μM and 100 μM, +40 mV
# T1 construct: KV1.5 (NM_002234), and TASK-1 (NM_002246); expressed in transfected cells; host or cells: HEK-293 (transient transfection)
# Procedure: The human embryonic kidney 293 (HEK-293) cell line was obtained from the American Type Culture Collection. HEK-293 cells were cultured in Dulbecco’s modified Eagle’s medium (DMEM-F12, Invitrogen Life Technologies) supplemented with 5% (v/v) fetal bovine serum (FBS) (Thermo Fisher Scientific) and 1% antibiotics (penicillin 100 U/ml y streptomycin 100 μg/ml) (Gibco, Thermo Fisher). The cells were maintained at 37 °C and 5% CO2 atmosphere.
# For the electrophysiological experiments, HEK-293 cells were transiently transfected with cDNA encoding human NaV1.5 (plasmid 145,374, Addgene), KV1.5 (NM_002234), and TASK-1 (NM_002246). […] The cells were incubated for 4 h in transfection medium OptiMEM (Invitrogen). […]
# For Nav1.5, the effect of 6f at both concentrations was tested using a repetitive single test voltage pulse at −10 mV (during 20 ms) from a holding potential of −80 mV, with intervals of 5s between pulses. For Kv1.5 and TASK-1, ramp voltage protocols were applied with pulse intervals of 20 s, and the currents were analyzed at +40 mV. […]
# After recording currents with stable amplitudes, the cells were treated with 6f and applied from the bath solution. Currents were continuously recorded during repetitive pulses until a stable effect was achieved. […] The inhibition percentage was calculated as follows: Inℎibition (%) = 100 ∗ (Icontrol − Idrug)/Icontrol.
# human erythrocytes = test: Hemolysis assay; assay type: cell-based; details: 0.2–400 μM, 2 hours, 37 °C
# Procedure: To evaluate cytotoxicity, the hemolysis of the compounds with the best simultaneous blocking activity on the channels (6e, 6f, 7a, 7b and 7c) was considered, modifying the protocol of Chen 2018 ([112]). Thus, non-heparinized human blood was collected. Erythrocytes were washed three times in 1× PBS (phosphate-buffered saline: NaCl, 8 g/L; KCl, 0.2 g/L; Na2HPO4, 1.44 g/L; and KH2PO4, 0.24 g/L; pH 7.4) and then used to prepare a 3% red blood cell (RBC) suspension. The assay was performed in a 96-well polypropylene microplate.
# The compounds were prepared from 200 mM stock solutions in DMSO. Subsequently, 1:2 serial dilutions were made in 1× PBS, with final concentrations from 400 to 0.2 μM to a final volume of 200 μl per well. The microplate was incubated for 2 h at 37 °C and centrifuged at 3400 rpm for 5 min. Finally, 100 μl of the supernatant was transferred and measured in a 96-well plate. Hemoglobin release was monitored by photometric analysis of the supernatant at 540 nm using an Epoch Microplate Spectrophotometer (BioTek Instruments, Inc. Winooski, Vermont 05404-0998).
# A 3% RBC suspension treated with Tween 20 was used to obtain total lysis as a positive control. Other authors who performed hemolysis assays have also considered this and other detergents, such as Triton X-100 and Sodium Dodecyl Sulfate (SDS) as positive controls ([113], [114], [115], [116]). The negative control was a suspension of red blood cells with PBS. Each experiment was performed in triplicate at all concentrations used. The percentage of hemolysis was calculated with the following (Equation 1), where Ad: absorbance of the dilution, A0: absorbance of the blank (RBC suspension with PBS), and At: total absorbance (positive control).(1) %hemolysis=Ad−A0/At−A0x100
# T1 sequence (P22460 whole entry): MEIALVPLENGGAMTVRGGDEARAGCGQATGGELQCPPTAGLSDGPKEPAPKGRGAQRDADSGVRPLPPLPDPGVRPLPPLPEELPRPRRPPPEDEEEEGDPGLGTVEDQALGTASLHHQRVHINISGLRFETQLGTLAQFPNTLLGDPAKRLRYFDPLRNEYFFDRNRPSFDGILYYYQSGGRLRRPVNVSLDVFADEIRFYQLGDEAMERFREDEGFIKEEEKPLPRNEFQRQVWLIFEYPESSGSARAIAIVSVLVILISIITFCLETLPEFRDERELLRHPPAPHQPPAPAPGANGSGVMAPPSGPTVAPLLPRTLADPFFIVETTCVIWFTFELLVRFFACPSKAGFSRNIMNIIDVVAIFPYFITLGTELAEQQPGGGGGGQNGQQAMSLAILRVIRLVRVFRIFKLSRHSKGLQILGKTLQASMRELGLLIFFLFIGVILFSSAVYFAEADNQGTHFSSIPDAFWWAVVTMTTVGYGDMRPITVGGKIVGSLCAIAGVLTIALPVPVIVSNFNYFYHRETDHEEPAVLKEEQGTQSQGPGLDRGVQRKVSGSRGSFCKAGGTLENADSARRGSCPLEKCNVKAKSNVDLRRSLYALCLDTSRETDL
smiles,measurement,setting,value
"CCCCN(CCCC)CC(=O)Nc1ccc(OC)cc1OC [Compound 6f, 2-(dibutylamine)-N-(2,4-dimethoxiphenyl)acetamide]",Blockade of KV1.5 in HEK cells,human Kv1.5,significant blockade by 6f only at 100 μM
same,Hemolytic effect,human erythrocytes,no hemolytic effect
